According to paper PMC8386747, “Structure–activity relationship, in vitro and in vivo evaluation of novel dienyl sulphonyl fluorides as selective BuChE inhibitors for the treatment of Alzheimer's disease” (Journal of Enzyme Inhibition and Medicinal Chemistry, 2021):
Like-named read-outs stand apart in the source and are kept apart here.

What was measured:
[1] = PAMPA-BBB, reported data from the reference; cited from earlier work
[2] = in vitro; conditions: PAMPA
Experimental: (§1) The 96-well UV plate (COSTAR) was manufactured by Corning Corporation, USA, and the commercially available drugs and test compounds were initially dissolved in DMSO at a concentration of 20 mg/mL. The solution was then diluted 200-fold with PBS (pH 7.4 ± 0.1)/EtOH (70/30, v/v) solution to a final concentration of 100 µg/mL.
(§2) The test compound was dissolved in DMSO at 5 mg/mL and diluted 200-fold with universal buffer (final concentration 25 µg/mL) to prepare the secondary stock solution; 200 µL of the secondary stock solution was added to the donor well; the acceptor plate was coated with 4 µL of 20 mg/mL dodecyl porcine polar brain, and then, 200 µL of pH 7.4 universal buffer was added to the acceptor well; the acceptor plate was carefully placed on the donor plate to form a “sandwich” and maintained for 18 h; the drug concentrations in the acceptor, donor and reference wells were determined using a UV microplate reader; the experiment was repeated three times, and the concentrations of the test compound in the donor and acceptor wells were measured using a UV plate spectral reader (PerkinElmer VICT or Nivo, Finland). In at least three independent experiments, each sample was analysed at three wavelengths in a four well.

[3] = for BBB penetration: PAMPA-BBB class
Experimental: as §1, §2

[4] = tested on: Aβ1-42-induced cognitive dysfunction; test: Morris water maze in Aβ1-42-induced cognitive impairment model; type: in vivo, mouse; conditions: mice, Aβ1-42 10 µg icv; 15 mg/kg po Day 3 to Day 14
Experimental: All experiments were performed according to the National Institutes of Health Guide for the Care and Use of Laboratory Animals. The Measures for the Care and Treatment of Laboratory Animals were approved by the Animal Care and Use Committee of Anhui Medical University. Male ICR mice were used in the animal centre of Anhui Medical University (Hefei). Male mice (18‒24 g) aged 6‒8 weeks, 10 mice per cage, room temperature 22 ± 2 °C, light/dark (12:12 h) cycle. These animals had access to food and water prior to testing. The ambient temperature and relative humidity (50%) of the room remained consistent throughout all tests. Behavioural experiments: MWM was used for cognitive function, and mice were randomly selected for behavioural experiments. Each experimental group consisted of 8‒10 mice/dose. The experimental time was from 08:00 to 14:00, and the mice were sacrificed by cervical dislocation immediately after the end of the experiment. […]. Aβ1-42 aggregation was induced by dissolving the Aβ1-42 peptide in DMSO as a stock solution of 5 mM and incubating it in saline at a final concentration of 2 mg/mL for 24 h at 37 °C.
The behavioural study was a water maze experimental behavioural study on days 10 − 15, including a 5-day learning and memory training, and a test assessment on day 6. MWM consists of a water-filled pool (grey, circular, 1.20 m in diameter, 0.60 m in height) and a platform with adjustable height and movable position. The pool was divided into four equal quadrants (compass position: NE, NW, SE, SW) using a computerised video tracking system (SMART, version 3.0; Panlab, Spain). The pool was filled with water, generally about 48 cm below the edge, to prevent animals from jumping out, and the water temperature was maintained at 22 ± 1 °C. […] The time to reach the hidden platform (i.e. escape latency), the distance to reach the hidden platform, the distance in the target (NW) area, and the average speed were recorded. […]

[5] = target: T1, AChE from electric eel (Electrophorus electricus, UniProt O42275); test: EeAChE inhibition assay (Ellman's method); type: biochemical; conditions: for inhibition at 20 µM: read-out: AChE % inhibition at 20 µM, na = no inhibitory activity at 20 µM
T1 construct: assays were performed on AChE from electric eel (C3389-500UN; Sigma); purchased Sigma C3389-500UN
T1 sequence (O42275 24-633): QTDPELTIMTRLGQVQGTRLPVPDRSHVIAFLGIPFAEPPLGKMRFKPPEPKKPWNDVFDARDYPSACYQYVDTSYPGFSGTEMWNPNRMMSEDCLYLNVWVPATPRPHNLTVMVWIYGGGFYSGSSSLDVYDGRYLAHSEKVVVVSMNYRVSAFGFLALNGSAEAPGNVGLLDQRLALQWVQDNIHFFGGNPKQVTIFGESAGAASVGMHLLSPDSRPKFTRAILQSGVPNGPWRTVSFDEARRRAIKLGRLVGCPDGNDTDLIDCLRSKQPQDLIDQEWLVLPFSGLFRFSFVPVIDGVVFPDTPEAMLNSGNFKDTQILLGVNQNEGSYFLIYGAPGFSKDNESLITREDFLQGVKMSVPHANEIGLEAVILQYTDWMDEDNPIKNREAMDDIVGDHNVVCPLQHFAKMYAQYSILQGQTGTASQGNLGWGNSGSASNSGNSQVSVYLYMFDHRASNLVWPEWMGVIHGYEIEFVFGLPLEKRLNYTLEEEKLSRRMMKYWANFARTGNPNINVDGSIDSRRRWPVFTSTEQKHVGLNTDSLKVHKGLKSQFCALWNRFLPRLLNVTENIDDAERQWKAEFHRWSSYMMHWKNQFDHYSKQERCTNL
Experimental: (§3) According to the Ellman’s method, assays were performed on AChE from electric eel (C3389-500UN; Sigma) and BuChE from equine serum (C4290-1KU; Sigma). The experiment was performed in 48-well plates in a final volume of 500 µL. Each well contained 0.036 U/mL of eeAChE or eqBuChE, and 0.1 M pH 8 PBS. They were pre-incubated for 20 min at different compound concentrations at 37 °C. […] The DTNB produces the yellow anion 5-thio-2-nitrobenzoic acid along with the enzymatic degradation of ACh or BuCh. Changes in absorbance were measured at 410 nm after 20 min in a PerkinElmer VICTOR Nivo reader. The IC50 values were calculated graphically from inhibition curves (log inhibitor concentration vs percent of inhibition). A control experiment was performed under the same conditions without inhibitor and the blank contained buffer, DMSO, DTNB, and substrate.

[6] = target: T2, recombinant human AChE (hAChE) (Homo sapiens, UniProt P22303); test: hAChE inhibition assay (Ellman's assay); type: biochemical
T2 construct: purchased Sigma C1682
T2 sequence (P22303 32-614): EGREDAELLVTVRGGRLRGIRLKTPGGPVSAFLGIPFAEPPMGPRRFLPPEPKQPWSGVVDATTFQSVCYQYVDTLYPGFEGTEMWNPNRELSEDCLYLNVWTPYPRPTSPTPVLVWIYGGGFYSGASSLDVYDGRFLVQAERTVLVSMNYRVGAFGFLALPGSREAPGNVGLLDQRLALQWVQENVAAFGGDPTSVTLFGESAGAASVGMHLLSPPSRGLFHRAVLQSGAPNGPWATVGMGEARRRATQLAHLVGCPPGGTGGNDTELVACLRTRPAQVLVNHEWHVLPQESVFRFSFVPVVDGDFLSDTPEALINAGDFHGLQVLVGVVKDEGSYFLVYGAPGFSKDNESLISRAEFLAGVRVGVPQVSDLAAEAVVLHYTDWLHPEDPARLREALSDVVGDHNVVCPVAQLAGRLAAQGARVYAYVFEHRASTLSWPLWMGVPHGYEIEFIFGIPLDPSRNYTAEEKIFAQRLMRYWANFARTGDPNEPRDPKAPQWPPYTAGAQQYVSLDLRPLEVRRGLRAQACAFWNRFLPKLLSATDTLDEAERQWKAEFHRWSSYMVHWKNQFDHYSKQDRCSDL
Experimental: The solution was diluted to 5 concentrations of 200, 100, 10, 1 and 0.1 µM in ethanol. Measurements were performed using 96-well plates. Buffer (40 µL), sample at a series of concentrations (10 µL), AChE (10 µL), and dibutyl succinate (20 µL) were successively added. The mixture was then incubated for 5 min at 37 °C. Then, 20 µL of ACh or BuCh were added and the reaction started. […] For the blank value, 10 µL of water was used instead of the inhibitor solution. The activity of the inhibitor was expressed as a logarithmic plot of the percentage of enzyme activity (with 100% as the reference) versus the concentration of the compound. IC50 values were determined graphically from inhibition curves (log inhibitor concentration versus percent inhibition).

[7] = target: T3, BuChE from equine serum (Equus caballus, UniProt P81908); test: eqBuChE inhibition assay (Ellman's method); type: biochemical; conditions: BuChE from horse serum; for inhibition at 20 µM: read-out: BuChE % inhibition at 20 µM; for IC50: mean ± SEM
T3 construct: BuChE from equine serum (C4290-1KU; Sigma); purchased Sigma C4290-1KU; host or cells: equine serum
T3 sequence (P81908 whole entry): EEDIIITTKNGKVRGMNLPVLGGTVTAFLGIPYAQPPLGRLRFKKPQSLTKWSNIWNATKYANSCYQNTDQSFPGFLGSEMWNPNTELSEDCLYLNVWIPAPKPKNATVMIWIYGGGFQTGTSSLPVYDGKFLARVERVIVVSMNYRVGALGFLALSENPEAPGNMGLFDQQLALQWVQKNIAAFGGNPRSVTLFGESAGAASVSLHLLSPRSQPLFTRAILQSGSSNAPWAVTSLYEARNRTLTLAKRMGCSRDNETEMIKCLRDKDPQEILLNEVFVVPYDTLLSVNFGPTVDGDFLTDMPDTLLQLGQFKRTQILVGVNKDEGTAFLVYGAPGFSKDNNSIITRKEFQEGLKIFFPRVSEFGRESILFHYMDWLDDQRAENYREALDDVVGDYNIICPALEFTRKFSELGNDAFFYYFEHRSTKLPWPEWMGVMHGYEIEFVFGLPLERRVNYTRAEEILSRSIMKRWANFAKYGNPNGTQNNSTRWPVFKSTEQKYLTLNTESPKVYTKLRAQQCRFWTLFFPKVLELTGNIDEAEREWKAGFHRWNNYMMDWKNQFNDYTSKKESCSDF
Experimental: as §3

[8] = tested on: GSK-3β; set-up: method as in PMID 28749667, PMID 26696252; conditions: read-out: GSK-3μ IC50; cited from earlier work
[9] = tested on: BACE-1; set-up: method as in PMID 28749667, PMID 26696252; conditions: cited from earlier work
[10] = tested on: BuChE; set-up: method as in PMID 31136894; conditions: cited from earlier work
[11] = pH 7.4, Pe×10^-6cm/s Exp. value, PAMPA-BBB, three independent experiments
[12] = AChE from electric eel, mean ± SEM, read-out: AChE IC50

For Clc1cccc(Cl)c1N=C1NCCN1 [Clonidine, reference compound], which “Pe×10^-6cm/s BibL. value” [1] is on record?
Its value is 5.3 ×10^-6cm/s.

What about the Papp ([2]; pH 7.4, Pe×10^-6cm/s Exp. value) of the same molecule?
The Papp was 7.85 ×10⁻⁶ cm/s.

With CC(=O)[C@H]1CC[C@H]2[C@@H]3CCC4=CC(=O)CC[C@]4(C)[C@H]3CC[C@]12C [Progesterone, reference compound] as the molecule, how does the BBB penetration [3] read?
Its BBB penetration is “CNS+ (“CNS +” (high BBB permeation): Pe (× 10^‒6 cm/s) >4.0)”.

And the Papp [2, 11]?
The Papp was 18.2 ×10⁻⁶ cm/s.

Which “effect on Aβ1-42-induced cognitive dysfunction (MWM)” value [4] does the source give for COc1cc2c(cc1OC)C(=O)C(CC1CCN(Cc3ccccc3)CC1)C2 (centres unmarked) [Donepezil, donepezil, reference compound] here?
The value was “significantly improved”.

Which IC50 [5] does the source give for O=S(=O)(F)C(Br)=CC=Cc1ccc(Cl)nc1 [Compound A18] here?
The IC50 was 79 ± 2 nM.

And the inhibition at 20 µM [6]?
Its inhibition at 20 µM is 14.3 ± 0.9%.

What about the inhibition at 20 µM [7] of the same molecule?
Its inhibition at 20 µM is 42.8 ± 3.6%.

For O=[N+]([O-])c1ccccc1C=CC=C(Br)S(=O)(=O)F [Compound A11], which IC50 [5, 12] is on record?
Its IC50 is 150 ± 10 nM.

What about the IC50 [7] of the same molecule?
The IC50 was 270 ± 150 nM.

Which results are given for Cc1ccccc1C=CC=C(Br)S(=O)(=O)F [Compound A9]?
inhibition at 20 µM ([5]; AChE from electric eel): 23.2 ± 4%; IC50 [7]: 300 ± 110 nM

What does the source list for CSc1ccc(/C(=C\C=C\c2ccccc2)S(=O)(=O)F)cc1 [Compound D2]?
inhibition at 20 µM ([5]; AChE from electric eel): 25.5 ± 0.4%; inhibition at 20 µM [7]: 28.2 ± 1.89%

With O=S(=O)(F)/C(=C/C=C/c1ccccc1)c1ccc2ccccc2c1 [Compound D7] as the molecule, how does the inhibition at 20 µM ([5]; AChE from electric eel) read?
Its inhibition at 20 µM is 42.3 ± 0.5%.

And the inhibition at 20 µM [7]?
Its inhibition at 20 µM is 7.4 ± 0.2%.

For O=S(=O)(F)/C(C#Cc1ccccc1)=C/C=C/c1ccccc1 [Compound D11], which inhibition at 20 µM ([5]; AChE from electric eel) is on record?
The inhibition at 20 µM was 30.4 ± 0.1%.

What about the inhibition at 20 µM [7] of the same molecule?
Its inhibition at 20 µM is 24.3 ± 0.4%.

What does the source list for COc1cc(/C=C/C(O)=C/C(=O)/C=C/c2ccc(OCc3ccccc3)cc2)ccc1O [curcumin derivative]?
IC50 [8]: 900 nM; IC50 [9]: 970 nM

For COc1ccc(/C(=C\C=C\c2ccccc2)S(=O)(=O)F)cc1 [Compound D3], which inhibition at 20 µM ([5]; AChE from electric eel) is on record?
Its inhibition at 20 µM is 47.9 ± 0.4%.

What about the inhibition at 20 µM [7] of the same molecule?
The inhibition at 20 µM was 33.7 ± 1.8%.

Which results are given for O=S(=O)(F)/C(C#Cc1ccsc1)=C/C=C/c1ccccc1 [Compound D13]?
inhibition at 20 µM ([5]; AChE from electric eel): 14.7 ± 0.2%; inhibition at 20 µM [7]: 31.3 ± 0.4%

Which results are given for CN1C(C(=O)Nc2ccccn2)=C(O)c2ccccc2S1(=O)=O [Piroxicam, reference compound]?
Pe×10^-6cm/s BibL. value [1]: 9.3 ×10^-6cm/s; BBB penetration [3]: CNS+ (“CNS +” (high BBB permeation): Pe (× 10^‒6 cm/s) >4.0); Papp [2, 11]: 9.87 ×10⁻⁶ cm/s

For O=C1c2cc(NS(=O)(=O)c3ccccc3OC(F)(F)F)ccc2NC2C3Nc4ccccc4C3CCN12 (centres unmarked) [Rutaecarpine-6n], which IC50 [10] is on record?
Its IC50 is 3600 nM.

For O=S(=O)(F)/C(I)=C/C=C/c1ccc(F)cc1 [Compound C2], which inhibition at 20 µM ([5]; AChE from electric eel) is on record?
Its inhibition at 20 µM is 17 ± 1.7%.

What about the IC50 [7] of the same molecule?
Its IC50 is 450 ± 30 nM.

For O=S(=O)(F)C(Br)=CC=Cc1ccccc1Br [Compound A8], which BBB penetration [3] is on record?
The BBB penetration was “CNS+ (“CNS +” (high BBB permeation): Pe (× 10^‒6 cm/s) >4.0)”.

And the “Pe×10^-6cm/s Exp. value” ([3]; PAMPA-BBB, three independent experiments)?
Its value is 10.7 ×10^-6cm/s.

What about the Papp ([2]; pH 7.4, Pe, PAMPA-BBB) of the same molecule?
The Papp was 10.7 ×10⁻⁶ cm/s.

And the IC50 [5, 12]?
The IC50 was 107 ± 2 nM.

What about the IC50 [7] of the same molecule?
Its IC50 is 440 ± 180 nM.

With O=S(=O)(F)C(Br)=CC=Cc1cccc(C(F)(F)F)c1 [Compound A17] as the molecule, how does the inhibition at 20 µM ([5]; AChE from electric eel) read?
The inhibition at 20 µM was 12.1 ± 0.7%.

What about the IC50 [7] of the same molecule?
The IC50 was 430 ± 30 nM.

Which IC50 [5, 12] does the source give for O=S(=O)(F)/C(C#CC1CC1)=C/C=C/c1ccccc1 [Compound D14] here?
The IC50 was 1540 ± 320 nM.

What about the IC50 [7] of the same molecule?
Its IC50 is 430 ± 80 nM.

Which inhibition at 20 µM ([5]; AChE from electric eel) does the source give for COc1ccc(/C=C/C=C(\Cl)S(=O)(=O)F)cc1 [Compound B4] here?
The inhibition at 20 µM was 30.1 ± 3.8%.

What about the IC50 [7] of the same molecule?
Its IC50 is 540 ± 190 nM.
